We go through nine compounds from patent US9090596B2, “Disubstituted 3,4-diamino-3-cyclobutene-1,2-dione compounds for use in the treatment of chemokine-mediated pathologies” (GALDERMA RESEARCH & DEVELOPMENT, priority 2011, dated 2015).

For orientation: melting point means the temperature of the solid-liquid transition. What is called IC50 is the concentration at which inhibition is half-maximal. The low end stands for greater potency in that assay, the high end for weaker potency in that assay.

One data set has as its target CXCR2 receptor (Homo sapiens (Human), UniProt P25025). Description: β-arrestin 2 recruitment test, PathHunter HEK293-CXCR2 cells stimulated with CXCL8. The conditions noted are these: CXCL8 stimulation. The class given is cell-based. Here is the method:
(§1) The in vitro affinity of the compounds of the present invention for the CXCR1 and CXCR2 receptors was determined on a functional test of the β-arrestin recruitment type after receptor activation.
(§2) β-Arrestin Recruitment Assay:
(§3) “PathHunter HEK293-CXCR2” or “U2OS hCXCR1 β-arrestin” cells (DiscoveRx Corporation) were seeded overnight at 10 000 cells/well (384-well format) in 20 μl of Opti MEM I medium. A preincubation with the antagonist or the vehicle for 30 min at 37° C. and 5% CO2 was followed by 60 minutes of stimulation with CXCL8 at 37° C. and 5% CO2. The cells were then placed at ambient temperature for 30 minutes. The PathHunter detection reagent (DiscoveRx Corporation) was added. […] The data were analyzed by means of a non-linear curve procedure using the XLFit4 exploitation software (IDBS) and the IC50 values were determined.

A further data set concerns the target CXCR1 receptor (Homo sapiens (Human), UniProt P25024). Description: β-arrestin 2 recruitment test, U2OS hCXCR1 β-arrestin cells stimulated with CXCL8. The class given is cell-based. The following applies: CXCL8 stimulation. The method, then:
as §1, §2, §3
For orientation: Activated receptors often draw arrestin, which recruitment assays turn into a signal.

Chain of CXCR2 receptor (P25025 whole entry): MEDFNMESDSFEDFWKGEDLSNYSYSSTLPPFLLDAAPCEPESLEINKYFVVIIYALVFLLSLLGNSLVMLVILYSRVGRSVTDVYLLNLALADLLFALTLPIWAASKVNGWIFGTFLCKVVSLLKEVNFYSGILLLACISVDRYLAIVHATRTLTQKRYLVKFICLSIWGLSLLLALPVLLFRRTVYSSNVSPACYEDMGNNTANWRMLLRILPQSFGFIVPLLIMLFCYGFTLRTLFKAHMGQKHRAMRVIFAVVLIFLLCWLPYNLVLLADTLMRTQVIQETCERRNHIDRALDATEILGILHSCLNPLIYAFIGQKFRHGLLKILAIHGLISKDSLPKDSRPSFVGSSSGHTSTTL
Chain of CXCR1 receptor (P25024 whole entry): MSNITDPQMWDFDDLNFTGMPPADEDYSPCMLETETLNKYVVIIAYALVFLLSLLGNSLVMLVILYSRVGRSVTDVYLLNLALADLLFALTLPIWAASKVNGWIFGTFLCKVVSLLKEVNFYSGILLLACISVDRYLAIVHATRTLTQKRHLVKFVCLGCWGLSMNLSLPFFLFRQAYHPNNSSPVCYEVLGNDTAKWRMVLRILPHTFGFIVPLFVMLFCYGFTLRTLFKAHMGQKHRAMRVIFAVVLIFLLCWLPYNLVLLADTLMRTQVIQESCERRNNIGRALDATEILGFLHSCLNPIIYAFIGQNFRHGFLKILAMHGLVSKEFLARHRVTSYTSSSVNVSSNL

`Cc1ccc(C(Nc2c(Nc3cccc(C(C)O)c3O)c(=O)c2=O)C2(C)COC2)o1` (stereo not shown) [Example 11, 3-[2-hydroxy-3-(1-hydroxyethyl)phenylamino]-4-{[(5-methylfuran-2-yl)-(3-methyloxetan-3-yl)methyl]amino}cyclobut-3-ene-1,2-dione] yielded a melting point of 129 to 131 °C. The compound also gave an IC50 at CXCR2 receptor of 549 nM. This compound also yielded an IC50 against CXCR1 receptor of 6510 nM.
As to `Cc1ccc(C(Nc2c(Nc3cccc(C(=O)O)c3O)c(=O)c2=O)C2(C)COC2)o1` (stereo not shown) [Example 4, 2-hydroxy-3-(2-{[(5-methylfuran-2-yl)-(3-methyloxetan-3-yl)methyl]amino}-3,4-dioxocyclobut-1-enylamino)benzoic acid], the melting point is 180 to 185 °C.
`Cc1cc(C(Nc2c(Nc3cccc(C(=O)N(C)C)c3O)c(=O)c2=O)C2(C)COC2)oc1C` (stereo not shown) [Example 27, 3-(2-{[(4,5-dimethylfuran-2-yl)-(3-methyloxetan-3-yl)methyl]amino}-3,4-dioxocyclobut-1-enylamino)-2-hydroxy-N,N-dimethylbenzamide] came in with a melting point of 207 to 209 °C. For the same compound, the IC50 at CXCR2 receptor amounted to 244 nM. Also, inhibition on CXCR1 receptor was half-maximal at 1540 nM (IC50).
In the case of `Cc1ccc(C(Nc2c(Nc3cccc(C(=O)N4CCC[C@@H]4C(=O)OC(C)(C)C)c3O)c(=O)c2=O)C2(C)COC2)o1` (stereo partly drawn) [Example 7, (R)-1-[2-hydroxy-3-(2-{[(5-methylfuran-2-yl)-(3-methyloxetan-3-yl)methyl]amino}-3,4-dioxocyclobut-1-enylamino)benzoyl]pyrrolidine-2-carboxylic acid tert-butyl ester], the melting point was 162 to 164 °C. This compound registered an IC50 against CXCR2 receptor of 100 nM. The compound also returned an IC50 against CXCR1 receptor of 2410 nM.
On to `Cc1ccc(C(Nc2c(Nc3cccc(C(=O)N(C)C)c3O)c(=O)c2=O)C2(CF)COC2)o1` (stereo not shown) [Example 2, 3-(2-{[(3-fluoromethyloxetan-3-yl)-(5-methyl-furan-2-yl)methyl}amino]-3,4-dioxocyclobut-1-enylamino)-2-hydroxy-N,N-dimethylbenzamide], for which the melting point is 186 to 188 °C. The same compound returned an IC50 against CXCR2 receptor of 272 nM. In addition, half-maximal inhibition at CXCR1 receptor (IC50) required 1600 nM.
The matching figures for `Cc1ccc(C(Nc2c(Nc3cccc(C(=O)N4CCC(O)C4)c3)c(=O)c2=O)C2(C)COC2)o1` (stereo not shown) [Example 31, 3-[3-(3-hydroxypyrrolidine-1-carbonyl)phenylamino]-4-{[(5-methylfuran-2-yl)-(3-methyloxetan-3-yl)methyl]amino}cyclobut-3-ene-1,2-dione]: 242 to 245 °C, 716 nM and 3530 nM.
For `COC(=O)[C@@H]1CCCN1C(=O)c1cccc(Nc2c(NC(c3ccc(C)o3)C3(C)COC3)c(=O)c2=O)c1Cl` (stereo partly drawn) [Example 46, methyl (S)-1-[2-chloro-3-(2-{[(5-methylfuran-2-yl)-(3-methyloxetan-3-yl)methyl]amino}-3,4-dioxocyclobut-1-enylamino)benzoyl]pyrrolidine-2-carboxylate], the melting point lay within 148 to 158 °C.
`Cc1ccc(C(Nc2c(Nc3cccc4nn[nH]c34)c(=O)c2=O)C2(C)COC2)o1` (stereo not shown) [Example 23, 3-(3H-benzotriazol-4-ylamino)-4-{[(5-methylfuran-2-yl)-(3-methyloxetan-3-yl)methyl]amino}cyclobut-3-ene-1,2-dione] came in with a melting point of 178 to 180 °C.
`COC(=O)C1CCCCN1C(=O)c1cccc(Nc2c(NC(c3ccc(C)o3)C3(C)COC3)c(=O)c2=O)c1` (stereo not shown): the melting point is 130 to 132 °C.
